Experimental data published in US11926593B1, “6′-(3-bromophenyl)-2′-methoxy-3,4′-bipyridine-3′-carbonitrile as an antioxidant compound” (KING FAISAL UNIVERSITY, priority 2023, dated 2024).

Assay: DPPH radical scavenging antioxidant test
Format: biochemical
Details: 517 nm; for Inhibition (radical scavenging inhibition): DPPH 0.2 mL (0.75 mM), compound 3 μM in ethanol, 30 minutes in the dark
Experimental: The antioxidant activity of 6′-(3-bromophenyl)-2′-methoxy-3,4′-bipyridine-3′-carbonitrile was investigated by 2,2-diphenyl-1-picrylhydrazyl (DPPH) in vitro tests that employ vitamin C as the positive control.
The antioxidant properties of the 6′-(3-bromophenyl)-2′-methoxy-3,4′-bipyridine-3′-carbonitrile compound were studied by adding 0.2 mL DPPH (0.75 mM)) to 6′-(3-bromophenyl)-2′-methoxy-3,4′-bipyridine-3′-carbonitrile (3 μM) (4) in ethanol. After 30 minutes of incubation in the dark, the absorbance was read against a blank at 517 nm. Ascorbic acid (vitamin C) was used as standard antioxidants (positive control). A blank sample was prepared by 0.2 mL of DPPH in 3 mL ethanol. A negative control sample was run using ethanol instead of the sample. The radical scavenging inhibition was calculated using the following equation: […]
The antioxidant activity for the synthesized compound is listed in Table 1, using Vitamin C as a reference.

Structure (SMILES) | Inhibition (radical scavenging inhibition) [%] | antioxidant potential compared to vitamin C (DPPH in vitro test, vitamin C as positive control)
COc1nc(-c2cccc(Br)c2)cc(-c2cccnc2)c1C#N [Product 4, 6′-(3-bromophenyl)-2′-methoxy-3,4′-bipyridine-3′-carbonitrile] | 50 | high potential as an antioxidant
O=C1O[C@H]([C@@H](O)CO)C(O)=C1O [vit c, Ascorbic acid, reference compound] | 74 | –
